Consider 68 sequences from the supplement of paper PMC11208160.
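Further: IS621 bridge recombinase in Escherichia coli cells against a fixed T5 target plasmid.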

The nature of the data set: recombinant UMI read abundance after kanamycin selection (control-corrected) (log10(CPM+1)); higher = more efficient recombination; extreme values may be limits of the assay; sequences stand for … in AGTGCAGAGAAAATCGGCCAGTTTTCTCTGCCTGCAGTCCGCATGCCGTGGGACCCCTTGGGTTCTAACCTGTTGCCTAGATTTATGCAGCGGACTGCCTTTCTCCCAAAGTGATAAACCGG…AGGTTGGTTTCACT; site = the 11-nt donor. In a few lines: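 Under IPTG (0.07 mM) plus kanamycin, or without selection, Escherichia coli carrying a UMI-tagged donor and donor-binding-loop pair library and a target plasmid for the IS621 bridge recombinase were plated in two replicates. Recombinant UMIs were PCR-amplified across the donor–target junction and sequenced. Counts were converted to CPM, averaged over replicates, scaled by control-derived factors and reported as log10(CPM+1).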
“GGCACTCCATGGACCGGTTTTCCCGGTAATCCGTATTTGAA (site GGCAGTCCTTT)”: the “recombinant UMI read abundance (log10)” value was 0.00862.
Then “GGCACTCCATGGACCGGTTTTCCCGGTAATCCGTATTTGAA (site GGCATTCCTTT)”, with 0.00807; and “GGCAGGCCATGGACCGGTTTTCCCGGTAATCCGTATTTGCT (site GGCAGGCCTAG)”, with 0.861.
To “GGCATGACATGGACCGGTTTTCCCGGTAATCCGTATTTGCC (site GGCATGACTGG)” belongs 0; to “GGCCACACATGGACCGGTTTTCCCGGTAATCCGTATTTGTT (site GGCCACACTAA)”, 0.485.
For “GGCCACACATGGACCGGTTTTCCCGGTAATCCGTATTTGTT (site GGCCACCCTAA)”, the “recombinant UMI read abundance (log10)” value worked out at 0.035.
“GGCCACACATGGACCGGTTTTCCCGGTAATCCGTATTTGTT (site GGCCACGCTAA)”: the “recombinant UMI read abundance (log10)” value amounted to 0.0159.
Then “GGCCACACATGGACCGGTTTTCCCGGTAATCCGTATTTGTT (site GGCCACTCTAA)”, with 0.00795; and “GGCCACCCATGGACCGGTTTTCCCGGTAATCCGTATTTGAT (site GGCCACCCTAA)”, with 0.0182; and “GGCCACCCATGGACCGGTTTTCCCGGTAATCCGTATTTGAT (site GGCCACCCTAC)”, with 0.00622.
Then “GGCCACCCATGGACCGGTTTTCCCGGTAATCCGTATTTGAT (site GGCCACCCTAG)”, with 0; and “GGCCACCCATGGACCGGTTTTCCCGGTAATCCGTATTTGAT (site GGCCACCCTAT)”, with 0.
With “GGCCAGCCATGGACCGGTTTTCCCGGTAATCCGTATTTGTA (site GGCCAGCCTTA)”, the “recombinant UMI read abundance (log10)” value turned out to be 0.0264.
To “GGCCGATCATGGACCGGTTTTCCCGGTAATCCGTATTTGCG (site GGCCGATCTCG)” belongs 1.88.
To “GGCCGATCATGGACCGGTTTTCCCGGTAATCCGTATTTGTC (site GGCCGATCTGA)” belongs 0.695; to “GGCCGTGCATGGACCGGTTTTCCCGGTAATCCGTATTTGCC (site GGCCGTGCTGG)”, 1.16.
Then “GGCCTCCCATGGACCGGTTTTCCCGGTAATCCGTATTTGTT (site GGCCACCCTAA)”, with 0.0137.
For “GGCCTCCCATGGACCGGTTTTCCCGGTAATCCGTATTTGTT (site GGCCCCCCTAA)”, the “recombinant UMI read abundance (log10)” value was 0.
Take “GGCCTCCCATGGACCGGTTTTCCCGGTAATCCGTATTTGTT (site GGCCGCCCTAA)”: the “recombinant UMI read abundance (log10)” value worked out at 0.0206.
Then “GGCCTCCCATGGACCGGTTTTCCCGGTAATCCGTATTTGTT (site GGCCTCCCTAA)”, with 0.00625.
Then “GGCGAACCATGGACCGGTTTTCCCGGTAATCCGTATTTGAC (site GGCGAACCTGT)”, with 0.
Then “GGCGAACCATGGACCGGTTTTCCCGGTAATCCGTATTTGGG (site GGCGAACCTCC)”, with 0; and “GGCGACCCATGGACCGGTTTTCCCGGTAATCCGTATTTGTT (site GGCAACCCTAA)”, with 0.
In the case of “GGCGACCCATGGACCGGTTTTCCCGGTAATCCGTATTTGTT (site GGCCACCCTAA)”, the “recombinant UMI read abundance (log10)” value came out at 0.0153.
As for “GGCGACCCATGGACCGGTTTTCCCGGTAATCCGTATTTGTT (site GGCGACCCTAA)”, the “recombinant UMI read abundance (log10)” value came out at 0.263.
Then “GGCGACCCATGGACCGGTTTTCCCGGTAATCCGTATTTGTT (site GGCTACCCTAA)”, with 0.0186.
Then “GGCGAGGCATGGACCGGTTTTCCCGGTAATCCGTATTTGTC (site GGCGAGGCTGA)”, with 2.23.
Then “GGCGATACATGGACCGGTTTTCCCGGTAATCCGTATTTGTT (site GGCGATACTAA)”, with 1.81.
“GGCGCACCATGGACCGGTTTTCCCGGTAATCCGTATTTGCA (site GGAGCACCTTG)”: the “recombinant UMI read abundance (log10)” value was found to be 0.
To “GGCGCACCATGGACCGGTTTTCCCGGTAATCCGTATTTGCA (site GGCGCACCTTG)” belongs 0; to “GGCGCACCATGGACCGGTTTTCCCGGTAATCCGTATTTGCA (site GGGGCACCTTG)”, 0; to “GGCGCACCATGGACCGGTTTTCCCGGTAATCCGTATTTGCA (site GGTGCACCTTG)”, 0.00254.
In the case of “GGCGCAGCATGGACCGGTTTTCCCGGTAATCCGTATTTGTT (site GGCGCAGCTAA)”, the “recombinant UMI read abundance (log10)” value turned out to be 0.794.
Then “GGCTAATCATGGACCGGTTTTCCCGGTAATCCGTATTTGAT (site GGCTAATCTAT)”, with 0.935; and “GGCTACTCATGGACCGGTTTTCCCGGTAATCCGTATTTGCT (site GGCTACTCTAG)”, with 2.43; and “GGCTCTACATGGACCGGTTTTCCCGGTAATCCGTATTTGGT (site GGCTCTACTAC)”, with 0.
To “GGCTTGGCATGGACCGGTTTTCCCGGTAATCCGTATTTGGT (site GGCTTGGCTAC)” belongs 0.216; to “GGGAATACATGGACCGGTTTTCCCGGTAATCCGTATTTGCA (site AGGAAGACTTG)”, 0.
For the sequence “GGGAATACATGGACCGGTTTTCCCGGTAATCCGTATTTGCA (site GGGAATACTTG)”, the “recombinant UMI read abundance (log10)” value was determined as 1.37.
Then “GGGAATACATGGACCGGTTTTCCCGGTAATCCGTATTTGTT (site CGGAATCCTAA)”, with 0; and “GGGAATACATGGACCGGTTTTCCCGGTAATCCGTATTTGTT (site GGGAATACTAA)”, with 1.29.
To “GGGAATCCATGGACCGGTTTTCCCGGTAATCCGTATTTGAA (site GGAAATCCTTT)” belongs 0.0039; to “GGGAATCCATGGACCGGTTTTCCCGGTAATCCGTATTTGAA (site GGCAATCCTTT)”, 0.00362; to “GGGAATCCATGGACCGGTTTTCCCGGTAATCCGTATTTGAA (site GGGAATCCTTT)”, 0.808.
Then “GGGAATCCATGGACCGGTTTTCCCGGTAATCCGTATTTGAA (site GGTAATCCTTT)”, with 0.0108; and “GGGACATCATGGACCGGTTTTCCCGGTAATCCGTATTTGCT (site AGGACATCTAG)”, with 0; and “GGGACATCATGGACCGGTTTTCCCGGTAATCCGTATTTGCT (site CGGACATCTAG)”, with 0.
Take “GGGACATCATGGACCGGTTTTCCCGGTAATCCGTATTTGCT (site GGGACATCTAG)”: the “recombinant UMI read abundance (log10)” value amounted to 1.43.
Then “GGGACATCATGGACCGGTTTTCCCGGTAATCCGTATTTGCT (site TGGACATCTAG)”, with 0; and “GGGACTACATGGACCGGTTTTCCCGGTAATCCGTATTTGCA (site GGGACTACTTG)”, with 1.67.
To “GGGACTTCATGGACCGGTTTTCCCGGTAATCCGTATTTGTG (site GGGACTTCTCA)” belongs 0.746; to “GGGATCGCATGGACCGGTTTTCCCGGTAATCCGTATTTGCT (site GGGATCGCTAG)”, 3.09.
For “GGGATGACATGGACCGGTTTTCCCGGTAATCCGTATTTGAG (site GGGATGACTCT)”, the “recombinant UMI read abundance (log10)” value is 1.86.
On to “GGGATGCCATGGACCGGTTTTCCCGGTAATCCGTATTTGGC (site GGGATGCCTGC)”, for which the “recombinant UMI read abundance (log10)” value was 0.
To “GGGCAACCATGGACCGGTTTTCCCGGTAATCCGTATTTGCG (site GGGCAACCTCG)” belongs 0; to “GGGCAGACATGGACCGGTTTTCCCGGTAATCCGTATTTGCA (site AGGAAGACTTG)”, 0.0416.
To “GGGCAGACATGGACCGGTTTTCCCGGTAATCCGTATTTGCA (site GGGCAGACTTG)” belongs 2.58.
Then “GGGGAACCATGGACCGGTTTTCCCGGTAATCCGTATTTGCA (site GGGGAACCTTG)”, with 0; and “GGGGAACCATGGACCGGTTTTCCCGGTAATCCGTATTTGCA (site GGGGCACCTTG)”, with 0.
Regarding “GGGGAACCATGGACCGGTTTTCCCGGTAATCCGTATTTGCA (site GGGGGACCTTG)”, the “recombinant UMI read abundance (log10)” value amounted to 0.
To “GGGGAACCATGGACCGGTTTTCCCGGTAATCCGTATTTGCA (site GGGGTACCTTG)” belongs 0.
To “GGGGAATCATGGACCGGTTTTCCCGGTAATCCGTATTTGGG (site GGGGAATCTCC)” belongs 0.39.
Regarding “GGGGCAACATGGACCGGTTTTCCCGGTAATCCGTATTTGTC (site GGGGCAACTGA)”, the “recombinant UMI read abundance (log10)” value was determined as 1.94.
For “GGGGTAACATGGACCGGTTTTCCCGGTAATCCGTATTTGGG (site GGGGTAACTCC)”, the “recombinant UMI read abundance (log10)” value stood at 0.597.
Then “GGGGTTGCATGGACCGGTTTTCCCGGTAATCCGTATTTGCG (site GGGGTTGCTCG)”, with 1.75; and “GGGTACACATGGACCGGTTTTCCCGGTAATCCGTATTTGGC (site GGGTACACTGC)”, with 3.08.
Turning to “GGGTCGGCATGGACCGGTTTTCCCGGTAATCCGTATTTGGC (site GGGTCGGCTGC)”, the “recombinant UMI read abundance (log10)” value turned out to be 2.18.
To “GGGTGTTCATGGACCGGTTTTCCCGGTAATCCGTATTTGTT (site GGGTGTTCTAA)” belongs 1.1.
